According to patent US12227500B2, “Substituted pyrrolo[2,3-b]pyridines for suppressing toxic endoplasmic reticulum stress” (THE TRUSTEES OF COLUMBIA UNIVERSITY IN THE CITY OF NEW YORK, priority 2018, dated 2025):
Read-outs that look alike come from different tables or passages of the source.

Columns and labels:
Assay in all cases: Radiolabeled ATP kinase assay, panel of 371 kinases (Table S6)
Format in all cases: biochemical
[1] = target: T1, panel of 371 human kinases (Homo sapiens, UniProt O14578); conditions: STK21/CIT; 0.1 μM; 10 μM ATP; read-out: % Enzyme Activity (relative to DMSO controls)
T1 construct: purchased Reaction Biology Corp
Excerpt: (§1) ; FIG. 38C). […]. Further targeted analyses, such as genetic knock-down or knock-out, may be warranted to parse the role of these additional kinases in our model of neurodegeneration.

[2] = target: T2, panel of 371 human kinases (Homo sapiens, UniProt P04049); conditions: RAF1; 0.1 μM; 10 μM ATP; read-out: % Enzyme Activity (relative to DMSO controls)
T2 construct: purchased Reaction Biology Corp
Excerpt: as §1

[3] = target: T3, panel of 371 human kinases (Homo sapiens, UniProt P04629); conditions: TRKA; 0.1 μM; 10 μM ATP; read-out: % Enzyme Activity (relative to DMSO controls)
T3 construct: purchased Reaction Biology Corp
Excerpt: as §1

[4] = target: T4, panel of 371 human kinases (Homo sapiens, UniProt P08922); conditions: ROS/ROS1; 0.1 μM; 10 μM ATP; read-out: % Enzyme Activity (relative to DMSO controls)
T4 construct: purchased Reaction Biology Corp
Excerpt: as §1

[5] = target: T5, panel of 371 human kinases (Homo sapiens, UniProt P12931); conditions: c-Src; 0.1 μM; 10 μM ATP; read-out: % Enzyme Activity (relative to DMSO controls)
T5 construct: purchased Reaction Biology Corp
Excerpt: as §1

[6] = target: T6, panel of 371 human kinases (Homo sapiens, UniProt P16234); conditions: PDGFRa; 0.1 μM; 10 μM ATP; read-out: % Enzyme Activity (relative to DMSO controls)
T6 construct: purchased Reaction Biology Corp
Excerpt: as §1

[7] = target: T7, panel of 371 human kinases (Homo sapiens, UniProt P24941); conditions: 0.1 μM, 10 μM ATP, read-out: % Enzyme Activity (relative to DMSO controls)
T7 construct: purchased Reaction Biology Corp
Excerpt: as §1

[8] = target: T8, panel of 371 human kinases (Homo sapiens, UniProt P50750); conditions: 0.1 μM, 10 μM ATP, read-out: % Enzyme Activity (relative to DMSO controls)
T8 construct: purchased Reaction Biology Corp
Excerpt: as §1

[9] = target: T9, panel of 371 human kinases (Homo sapiens, UniProt P54753); conditions: EPHB3; 0.1 μM; 10 μM ATP; read-out: % Enzyme Activity (relative to DMSO controls)
T9 construct: purchased Reaction Biology Corp
Excerpt: as §1

[10] = target: T10, panel of 371 human kinases (Homo sapiens, UniProt Q07912); conditions: ACK1; 0.1 μM; 10 μM ATP; read-out: % Enzyme Activity (relative to DMSO controls)
T10 construct: purchased Reaction Biology Corp
Excerpt: as §1

[11] = target: T11, panel of 371 human kinases (Homo sapiens, UniProt Q6P2M8); conditions: CAMK1b; 0.1 μM; 10 μM ATP; read-out: % Enzyme Activity (relative to DMSO controls)
T11 construct: purchased Reaction Biology Corp
Excerpt: as §1

[12] = target: T12, panel of 371 human kinases (Homo sapiens, UniProt Q8IVH8); conditions: for remaining activity at 0.1 µM: GLK/MAP4K3, 10 μM ATP, read-out: % Enzyme Activity (relative to DMSO controls)
T12 construct: purchased Reaction Biology Corp
T12 sequence (Q8IVH8 1-894): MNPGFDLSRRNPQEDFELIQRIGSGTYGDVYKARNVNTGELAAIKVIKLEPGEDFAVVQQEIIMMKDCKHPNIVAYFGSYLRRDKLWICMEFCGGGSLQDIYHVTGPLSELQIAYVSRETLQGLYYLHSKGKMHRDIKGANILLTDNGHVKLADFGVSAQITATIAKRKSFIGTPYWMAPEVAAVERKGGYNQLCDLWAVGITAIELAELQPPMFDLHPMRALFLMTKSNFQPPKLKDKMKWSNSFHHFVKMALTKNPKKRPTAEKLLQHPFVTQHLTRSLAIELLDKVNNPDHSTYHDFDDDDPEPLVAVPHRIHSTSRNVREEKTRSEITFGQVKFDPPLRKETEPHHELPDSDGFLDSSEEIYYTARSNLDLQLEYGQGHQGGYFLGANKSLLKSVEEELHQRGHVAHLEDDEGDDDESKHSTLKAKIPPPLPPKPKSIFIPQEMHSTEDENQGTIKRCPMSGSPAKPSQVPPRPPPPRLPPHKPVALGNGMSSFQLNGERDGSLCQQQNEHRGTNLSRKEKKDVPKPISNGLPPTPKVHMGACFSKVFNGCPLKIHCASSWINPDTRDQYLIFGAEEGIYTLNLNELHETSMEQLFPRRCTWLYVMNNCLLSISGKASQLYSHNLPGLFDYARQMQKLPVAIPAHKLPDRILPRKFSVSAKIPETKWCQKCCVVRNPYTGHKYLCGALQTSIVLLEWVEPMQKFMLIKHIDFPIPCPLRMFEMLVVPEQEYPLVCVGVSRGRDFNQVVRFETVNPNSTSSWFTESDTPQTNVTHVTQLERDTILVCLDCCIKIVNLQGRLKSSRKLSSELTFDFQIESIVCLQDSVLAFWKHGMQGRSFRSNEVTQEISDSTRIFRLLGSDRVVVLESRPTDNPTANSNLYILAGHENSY
Excerpt: as §1

[13] = target: T13, panel of 371 human kinases (Homo sapiens, UniProt Q8IYT8); conditions: ULK2; 0.1 μM; 10 μM ATP; read-out: % Enzyme Activity (relative to DMSO controls)
T13 construct: purchased Reaction Biology Corp
Excerpt: as §1

[14] = target: T14, panel of 371 human kinases (Homo sapiens, UniProt Q8N752); conditions: CK1a1L; 0.1 μM; 10 μM ATP; read-out: % Enzyme Activity (relative to DMSO controls)
T14 construct: purchased Reaction Biology Corp
Excerpt: as §1

[15] = target: T15, panel of 371 human kinases (Homo sapiens, UniProt Q9NRH2); conditions: SNRK; 0.1 μM; 10 μM ATP; read-out: % Enzyme Activity (relative to DMSO controls)
T15 construct: purchased Reaction Biology Corp
Excerpt: as §1

[16] = target: T16, panel of 371 human kinases (Homo sapiens, UniProt Q9NY57); conditions: STK32B/YANK2; 0.1 μM; 10 μM ATP; read-out: % Enzyme Activity (relative to DMSO controls)
T16 construct: purchased Reaction Biology Corp
Excerpt: as §1

[17] = target: T17, panel of 371 human kinases (Homo sapiens, UniProt Q9UEW8); conditions: STK39/STLK3; 0.1 μM; 10 μM ATP; read-out: % Enzyme Activity (relative to DMSO controls)
T17 construct: purchased Reaction Biology Corp
Excerpt: as §1

T8 sequence (P50750 whole entry): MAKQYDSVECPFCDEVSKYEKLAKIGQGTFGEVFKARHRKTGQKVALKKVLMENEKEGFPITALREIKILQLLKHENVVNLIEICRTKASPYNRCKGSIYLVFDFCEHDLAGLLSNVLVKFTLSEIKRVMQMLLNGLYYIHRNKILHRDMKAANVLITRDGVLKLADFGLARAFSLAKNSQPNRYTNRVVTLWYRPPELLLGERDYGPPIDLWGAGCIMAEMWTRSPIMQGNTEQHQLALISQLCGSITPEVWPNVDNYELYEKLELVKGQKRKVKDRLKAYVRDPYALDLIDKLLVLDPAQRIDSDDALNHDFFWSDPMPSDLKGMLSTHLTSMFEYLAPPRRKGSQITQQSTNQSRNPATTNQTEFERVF
T2 sequence (P04049 whole entry): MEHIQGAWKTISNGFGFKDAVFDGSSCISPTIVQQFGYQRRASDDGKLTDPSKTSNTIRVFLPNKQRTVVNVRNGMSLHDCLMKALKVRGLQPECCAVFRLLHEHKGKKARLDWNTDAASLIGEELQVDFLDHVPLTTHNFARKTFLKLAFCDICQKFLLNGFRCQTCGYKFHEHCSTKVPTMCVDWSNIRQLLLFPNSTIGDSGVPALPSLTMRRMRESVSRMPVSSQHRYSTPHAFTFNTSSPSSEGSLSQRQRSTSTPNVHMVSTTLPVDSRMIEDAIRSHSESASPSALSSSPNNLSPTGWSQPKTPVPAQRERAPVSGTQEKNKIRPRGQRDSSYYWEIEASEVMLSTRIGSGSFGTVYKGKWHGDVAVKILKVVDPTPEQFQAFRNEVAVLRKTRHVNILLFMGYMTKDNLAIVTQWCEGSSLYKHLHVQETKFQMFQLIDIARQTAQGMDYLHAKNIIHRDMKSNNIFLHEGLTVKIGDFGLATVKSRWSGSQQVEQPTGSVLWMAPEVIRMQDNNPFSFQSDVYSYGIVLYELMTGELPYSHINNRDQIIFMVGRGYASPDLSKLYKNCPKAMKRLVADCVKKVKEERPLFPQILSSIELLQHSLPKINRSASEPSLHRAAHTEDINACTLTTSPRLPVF
T9 sequence (P54753 34-998): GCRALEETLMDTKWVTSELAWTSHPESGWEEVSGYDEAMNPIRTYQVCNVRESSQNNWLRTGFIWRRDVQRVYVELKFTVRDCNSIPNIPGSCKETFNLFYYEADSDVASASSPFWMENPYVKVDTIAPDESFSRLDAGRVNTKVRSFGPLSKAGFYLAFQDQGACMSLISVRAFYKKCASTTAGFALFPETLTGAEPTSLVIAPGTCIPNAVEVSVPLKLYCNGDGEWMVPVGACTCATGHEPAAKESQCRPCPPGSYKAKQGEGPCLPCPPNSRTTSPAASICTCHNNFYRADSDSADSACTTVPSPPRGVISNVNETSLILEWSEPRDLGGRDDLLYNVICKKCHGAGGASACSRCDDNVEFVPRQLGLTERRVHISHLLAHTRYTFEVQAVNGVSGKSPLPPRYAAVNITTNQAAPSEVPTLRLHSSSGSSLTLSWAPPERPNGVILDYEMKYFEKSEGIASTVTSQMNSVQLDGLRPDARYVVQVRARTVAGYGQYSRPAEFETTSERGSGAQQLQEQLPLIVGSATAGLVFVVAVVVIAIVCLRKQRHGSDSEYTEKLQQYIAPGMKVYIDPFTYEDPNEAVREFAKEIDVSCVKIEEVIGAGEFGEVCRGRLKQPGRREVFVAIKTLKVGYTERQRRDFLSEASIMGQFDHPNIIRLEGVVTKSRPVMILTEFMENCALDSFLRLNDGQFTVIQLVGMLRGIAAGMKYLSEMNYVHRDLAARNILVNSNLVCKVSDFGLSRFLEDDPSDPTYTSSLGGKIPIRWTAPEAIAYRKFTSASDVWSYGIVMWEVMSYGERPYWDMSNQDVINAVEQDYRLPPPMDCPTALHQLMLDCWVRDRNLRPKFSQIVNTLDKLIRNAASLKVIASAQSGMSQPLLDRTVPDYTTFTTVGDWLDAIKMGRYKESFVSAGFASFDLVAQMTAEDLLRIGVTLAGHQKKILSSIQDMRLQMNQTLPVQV
T6 sequence (P16234 24-1089): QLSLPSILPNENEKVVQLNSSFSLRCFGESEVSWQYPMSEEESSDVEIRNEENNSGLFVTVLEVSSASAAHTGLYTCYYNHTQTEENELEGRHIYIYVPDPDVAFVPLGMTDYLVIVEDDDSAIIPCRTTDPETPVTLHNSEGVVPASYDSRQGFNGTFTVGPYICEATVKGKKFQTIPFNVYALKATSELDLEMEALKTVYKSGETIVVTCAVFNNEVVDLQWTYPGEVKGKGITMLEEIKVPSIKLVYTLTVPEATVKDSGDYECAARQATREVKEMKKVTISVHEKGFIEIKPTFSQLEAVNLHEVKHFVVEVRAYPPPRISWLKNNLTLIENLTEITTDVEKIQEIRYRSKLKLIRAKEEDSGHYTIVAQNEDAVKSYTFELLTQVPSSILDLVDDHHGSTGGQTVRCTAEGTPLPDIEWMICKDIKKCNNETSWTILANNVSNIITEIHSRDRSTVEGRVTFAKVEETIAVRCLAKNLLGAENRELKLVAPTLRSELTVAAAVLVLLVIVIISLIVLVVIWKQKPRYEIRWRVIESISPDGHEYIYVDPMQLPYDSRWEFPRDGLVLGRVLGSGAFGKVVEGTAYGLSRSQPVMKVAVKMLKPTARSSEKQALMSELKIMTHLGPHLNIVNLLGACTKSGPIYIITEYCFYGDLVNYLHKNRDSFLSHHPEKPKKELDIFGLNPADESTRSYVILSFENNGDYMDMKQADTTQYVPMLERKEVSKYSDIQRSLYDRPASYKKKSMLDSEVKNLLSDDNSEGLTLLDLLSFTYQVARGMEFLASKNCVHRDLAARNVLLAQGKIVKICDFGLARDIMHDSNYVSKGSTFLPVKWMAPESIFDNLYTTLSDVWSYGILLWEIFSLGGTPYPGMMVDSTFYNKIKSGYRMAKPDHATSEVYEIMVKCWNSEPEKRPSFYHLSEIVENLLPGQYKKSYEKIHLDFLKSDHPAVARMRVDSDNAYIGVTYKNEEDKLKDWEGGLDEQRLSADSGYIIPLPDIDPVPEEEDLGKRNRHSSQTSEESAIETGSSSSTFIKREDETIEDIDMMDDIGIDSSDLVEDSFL
T13 sequence (Q8IYT8 whole entry): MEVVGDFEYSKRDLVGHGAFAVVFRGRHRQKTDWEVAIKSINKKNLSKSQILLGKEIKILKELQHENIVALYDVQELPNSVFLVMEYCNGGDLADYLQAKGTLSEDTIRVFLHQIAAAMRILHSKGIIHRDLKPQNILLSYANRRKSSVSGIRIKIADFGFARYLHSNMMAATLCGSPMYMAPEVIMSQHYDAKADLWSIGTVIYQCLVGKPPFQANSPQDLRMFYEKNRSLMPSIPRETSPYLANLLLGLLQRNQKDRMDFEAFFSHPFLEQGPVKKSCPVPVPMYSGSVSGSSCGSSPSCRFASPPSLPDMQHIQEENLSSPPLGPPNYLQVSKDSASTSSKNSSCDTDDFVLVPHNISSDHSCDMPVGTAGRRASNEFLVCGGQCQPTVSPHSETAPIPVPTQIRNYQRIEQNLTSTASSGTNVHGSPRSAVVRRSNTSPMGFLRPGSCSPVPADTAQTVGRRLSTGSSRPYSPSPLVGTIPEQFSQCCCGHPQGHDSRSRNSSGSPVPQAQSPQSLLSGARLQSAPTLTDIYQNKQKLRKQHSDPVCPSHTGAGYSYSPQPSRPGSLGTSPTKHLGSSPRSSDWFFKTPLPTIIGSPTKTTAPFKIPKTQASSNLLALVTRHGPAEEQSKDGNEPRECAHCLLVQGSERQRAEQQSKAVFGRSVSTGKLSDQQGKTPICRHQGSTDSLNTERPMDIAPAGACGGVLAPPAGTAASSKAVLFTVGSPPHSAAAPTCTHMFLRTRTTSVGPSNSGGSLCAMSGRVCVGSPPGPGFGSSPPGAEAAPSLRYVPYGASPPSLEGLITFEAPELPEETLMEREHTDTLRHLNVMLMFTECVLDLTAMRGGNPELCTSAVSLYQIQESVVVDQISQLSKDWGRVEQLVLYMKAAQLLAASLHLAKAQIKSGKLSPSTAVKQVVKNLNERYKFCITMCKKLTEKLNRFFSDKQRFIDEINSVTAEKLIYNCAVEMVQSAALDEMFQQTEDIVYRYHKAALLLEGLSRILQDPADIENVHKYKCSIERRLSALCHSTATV
T3 sequence (P04629 33-796): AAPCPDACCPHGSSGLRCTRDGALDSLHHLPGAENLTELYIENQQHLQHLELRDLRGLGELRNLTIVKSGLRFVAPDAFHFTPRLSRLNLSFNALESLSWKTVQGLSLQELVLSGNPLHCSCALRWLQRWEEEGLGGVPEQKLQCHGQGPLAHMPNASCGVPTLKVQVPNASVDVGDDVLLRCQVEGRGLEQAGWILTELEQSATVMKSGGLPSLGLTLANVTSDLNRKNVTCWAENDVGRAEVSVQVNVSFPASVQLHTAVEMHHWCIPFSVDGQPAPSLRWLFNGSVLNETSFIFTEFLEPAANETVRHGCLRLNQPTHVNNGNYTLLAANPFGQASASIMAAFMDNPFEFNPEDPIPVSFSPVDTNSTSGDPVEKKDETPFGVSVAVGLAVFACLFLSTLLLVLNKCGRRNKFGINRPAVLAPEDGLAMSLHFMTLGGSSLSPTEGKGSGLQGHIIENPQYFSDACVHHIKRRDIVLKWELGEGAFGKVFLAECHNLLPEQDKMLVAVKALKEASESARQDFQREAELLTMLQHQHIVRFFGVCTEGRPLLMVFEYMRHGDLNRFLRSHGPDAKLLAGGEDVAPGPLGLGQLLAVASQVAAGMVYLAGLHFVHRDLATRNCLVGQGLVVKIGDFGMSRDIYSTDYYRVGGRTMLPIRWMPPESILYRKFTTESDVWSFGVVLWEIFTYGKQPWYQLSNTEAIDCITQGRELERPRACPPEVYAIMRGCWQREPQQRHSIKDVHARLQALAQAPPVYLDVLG

**Q.** Which results are given for `CN1CCN(Cc2ccc(-c3cnc4[nH]cc(-c5ccc6[nH]ccc6c5)c4c3)cc2)CC1` [Compound 1, 3-(1H-Indol-5-yl)-5-(4-((4-methylpiperazin-1-yl)methyl)phenyl)-1H-pyrrolo[2,3-b]pyridine, reference compound]?
**A.** remaining activity at 0.1 µM [1]: 103%; remaining activity at 0.1 µM [2]: 104%; remaining activity at 0.1 µM [3]: 69.2%; remaining activity at 0.1 µM [4]: 96%; remaining activity at 0.1 µM [5]: 86%; remaining activity at 0.1 µM [6]: 86.9%; remaining activity at 0.1 µM ([7]; CDK2/cyclin A1): 94.2%; remaining activity at 0.1 µM ([7]; CDK2/cyclin A): 90.2%; remaining activity at 0.1 µM ([7]; CDK2/cyclin E2): 110%; remaining activity at 0.1 µM ([7]; CDK2/cyclin E): 96.1%; remaining activity at 0.1 µM ([7]; CDK2/cyclin O): 102%; remaining activity at 0.1 µM ([8]; CDK9/cyclin K): 79.8%; remaining activity at 0.1 µM ([8]; CDK9/cyclin T1): 86%; remaining activity at 0.1 µM ([8]; CDK9/cyclin T2): 112%; remaining activity at 0.1 µM [9]: 107%; remaining activity at 0.1 µM [10]: 87.3%; remaining activity at 0.1 µM [11]: 105%; remaining activity at 0.1 µM [12]: 49.2%; remaining activity at 0.1 µM [13]: 80.4%; remaining activity at 0.1 µM [14]: 94.8%; remaining activity at 0.1 µM [15]: 102%; remaining activity at 0.1 µM [16]: 97%; remaining activity at 0.1 µM [17]: 90.7%

**Q.** For `OCCN1CCN(Cc2ccc(-c3cnc4[nH]cc(-c5cccc(Cl)c5)c4c3)cc2)CC1` [Compound 12k, 2-(4-(4-(3-(3-Chlorophenyl)-1H-pyrrolo[2,3-b]pyridin-5-yl)benzyl)piperazin-1-yl)ethan-1-ol], which remaining activity at 0.1 µM [1] is on record?
**A.** Its remaining activity at 0.1 µM is 104%.

**Q.** What about the remaining activity at 0.1 µM [2] of the same compound?
**A.** Its remaining activity at 0.1 µM is 105%.

**Q.** And the remaining activity at 0.1 µM [3]?
**A.** The remaining activity at 0.1 µM was 75.4%.

**Q.** And the remaining activity at 0.1 µM [4]?
**A.** The remaining activity at 0.1 µM was 94.2%.

**Q.** What about the remaining activity at 0.1 µM [5] of the same compound?
**A.** Its remaining activity at 0.1 µM is 88.1%.

**Q.** What about the remaining activity at 0.1 µM [6] of the same compound?
**A.** The remaining activity at 0.1 µM was 87.8%.

**Q.** And the remaining activity at 0.1 µM ([7]; CDK2/cyclin A1)?
**A.** The remaining activity at 0.1 µM was 87.1%.

**Q.** And the remaining activity at 0.1 µM ([7]; CDK2/cyclin A)?
**A.** The remaining activity at 0.1 µM was 83.1%.

**Q.** And the remaining activity at 0.1 µM ([7]; CDK2/cyclin E2)?
**A.** Its remaining activity at 0.1 µM is 89.6%.

**Q.** What about the remaining activity at 0.1 µM ([7]; CDK2/cyclin E) of the same compound?
**A.** Its remaining activity at 0.1 µM is 98.3%.

**Q.** What about the remaining activity at 0.1 µM ([7]; CDK2/cyclin O) of the same compound?
**A.** The remaining activity at 0.1 µM was 82.5%.

**Q.** What about the remaining activity at 0.1 µM ([8]; CDK9/cyclin K) of the same compound?
**A.** Its remaining activity at 0.1 µM is 88.5%.

**Q.** And the remaining activity at 0.1 µM ([8]; CDK9/cyclin T1)?
**A.** The remaining activity at 0.1 µM was 88.7%.

**Q.** And the remaining activity at 0.1 µM ([8]; CDK9/cyclin T2)?
**A.** Its remaining activity at 0.1 µM is 99.1%.

**Q.** And the remaining activity at 0.1 µM [9]?
**A.** The remaining activity at 0.1 µM was 101%.

**Q.** And the remaining activity at 0.1 µM [10]?
**A.** Its remaining activity at 0.1 µM is 93.6%.

**Q.** And the remaining activity at 0.1 µM [11]?
**A.** The remaining activity at 0.1 µM was 103%.

**Q.** And the “fold change in GLK activity following 12k exposure relative to 1” value ([12]; 0.025 μM)?
**A.** Its value is 6.84 fold.

**Q.** What about the remaining activity at 0.1 µM [12] of the same compound?
**A.** The remaining activity at 0.1 µM was 7.18%.

**Q.** And the remaining activity at 0.1 µM [13]?
**A.** The remaining activity at 0.1 µM was 36%.

**Q.** And the remaining activity at 0.1 µM [14]?
**A.** Its remaining activity at 0.1 µM is 107%.

**Q.** And the remaining activity at 0.1 µM [15]?
**A.** Its remaining activity at 0.1 µM is 43.1%.

**Q.** What about the remaining activity at 0.1 µM [16] of the same compound?
**A.** The remaining activity at 0.1 µM was 88.5%.

**Q.** And the remaining activity at 0.1 µM [17]?
**A.** Its remaining activity at 0.1 µM is 77.3%.
